Data set [1] concerns LNCaP. The experiment in a line: Induction of PGE2 production in human LNCAP cells assessed as half-maximal activation concentration after 16 hrs by HTRF assay. Type of data set: functional, cell-based. Background: TR-FRET usually uses a lanthanide donor and a delayed reading to cut background.
A short description of data set [2]: Kinetic solubility of the compound in PBS buffer at pH 7.4. Type of data set: physicochemical.
Data set [3] concerns the target T1, 15-hydroxyprostaglandin dehydrogenase [NAD(+)] (Homo sapiens, UniProt P15428).
T1 sequence (P15428 whole entry): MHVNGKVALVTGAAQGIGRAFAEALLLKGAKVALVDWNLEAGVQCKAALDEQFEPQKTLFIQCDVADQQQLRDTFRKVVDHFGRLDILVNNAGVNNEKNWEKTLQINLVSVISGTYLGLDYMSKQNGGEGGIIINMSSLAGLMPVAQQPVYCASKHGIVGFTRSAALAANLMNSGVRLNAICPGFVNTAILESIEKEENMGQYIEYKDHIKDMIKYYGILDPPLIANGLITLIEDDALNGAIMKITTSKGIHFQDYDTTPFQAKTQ
The experiment in a line: Inhibition of human HPGD using PGE2 as substrate after 15 mins by fluorescence assay.

The subject of data set [4] is A549. The experiment in a line: Induction of PGE2 production in human A549 cells assessed as concentration required for half-maximal activation after 4 to 20 hrs by HTRF assay. Type of data set: functional, cell-based.
Data set [5] is described as follows: Passive permeability of the compound at pH 7.4 by PAMPA. Type of data set: ADME. On the technique in general: PAMPA measures passive passage across an artificial lipid membrane.
In data set [6] the test system is LNCaP. The experiment in a line: Induction of PGE2 production in human LNCAP cells at 41.9 nM to 100 uM after 16 hrs by HTRF assay relative to control. Format: functional.
Data set [7] deals with A549. Kind of data set: Induction of PGE2 production in human A549 cells at 775 pM to 45.8 uM after 4 to 20 hrs by HTRF assay relative to control. Format: functional.
The next data set relates to Liver microsome. The experiment in a line: Half life in rat liver microsomes in presence of NADPH. Format: ADME.

Where only a bound is given, the exact number is not on record here.

For the compound `Cc1cccc(-n2cnc3cc(C(=O)N4CCCCC4)ccc32)c1`, the AC50 (as a rule, the concentration at which the activity in the assay is half-maximal) was found to be 884 nM in the data set on LNCaP [1] and 469 nM with A549 [4]. The Kinetic_solubility in data set [2] was greater than 47 µM. Moreover, in data set [3], the IC50 (as a rule, the point on the concentration scale where inhibition reaches its midpoint) is 19 nM. In data set [5], this compound displayed a permeability of 1200 ×10⁻⁶ cm/s. For the same compound, the results for the Activity in the data set on LNCaP [6] and with A549 [7] were 62% and 129%, respectively. Moreover, the t1/2 in the data set with Liver microsome was 7.3 min.

Consider `Cc1cc(-c2nnc3n2CCCCC3)c(C)n1-c1ccccc1`, for which the Kinetic_solubility in data set [2] is greater than 45 µM. The compound also showed an IC50 in data set [3] of 54 nM. This compound showed a permeability in data set [5] of 599 ×10⁻⁶ cm/s. Further, the Activity with LNCaP [6] was 73%; in the data set with A549 [7], 106%.

With `Cc1cc(-c2nnc3n2CCCCC3)c(C)n1-c1ccc(F)cc1`, the IC50 in data set [3] worked out at 121 nM.

As to `COc1ccccc1-n1cnc2cc(C(=O)N3CCCCC3)ccc21`, it took 27 nM to reach half-maximal inhibition in data set [3] (IC50).

As to `Cc1cc(-c2nnc3n2CCCCC3)c(C)n1-c1ccc(Cl)cc1`, it took 38 nM to reach half-maximal inhibition in data set [3] (IC50).

Regarding `Cc1cc(-c2nnc3n2CCCCC3)c(C)n1-c1ccc(Br)cc1`, in data set [3], the IC50 is 48 nM.

`Cc1cc(-c2nnc3n2CCCCC3)c(C)n1-c1ccc(C(F)(F)F)cc1` showed an IC50 in data set [3] of 68 nM.

Compound `Cc1cc(-c2nnc3n2CCCCC3)c(C)n1-c1ccc(C#N)cc1` returned an IC50 in data set [3] of 96 nM.

As to `COc1ccc(-n2c(C)cc(-c3nnc4n3CCCCC4)c2C)cc1`, the midpoint of inhibition in data set [3], the IC50, lay at 86 nM.

On to `Cc1cc(-c2nnc3n2CCCCC3)c(C)n1-c1ccc([N+](=O)[O-])cc1`, for which, in data set [3], it took 108 nM to reach half-maximal inhibition (IC50).

The compound `Cc1cc(-c2nnc3n2CCCCC3)c(C)n1-c1ccc(C(C)(C)C)cc1` showed an IC50 in data set [3] of 136 nM.

With `CCOC(=O)c1ccc(-n2c(C)cc(-c3nnc4n3CCCCC4)c2C)cc1`, the IC50 in data set [3] was 38 nM.

Consider `Cc1cc(-c2nnc3n2CCCCC3)c(C)n1-c1ccccn1`, for which, in data set [3], the IC50 turned out to be 1080 nM.

As to `Cc1cc(-c2nnc3n2CCCCC3)c(C)n1-c1cccnc1`, 271 nM corresponded to half-maximal inhibition in data set [3] (IC50).

Regarding `Cc1cc(-c2nnc3n2CCCCC3)c(C)n1-c1ccncc1`, the IC50 in data set [3] worked out at 383 nM.

In data set [3], `Cc1cc(-c2nnc3n2CCCCC3)c(C)n1-c1cccc2ccccc12` displayed an IC50 of 108 nM.

In data set [3], `Cc1cc(-c2nnc3n2CCC3)c(C)n1-c1ccccc1` returned an IC50 of 3040 nM.

Take `Cc1cc(-c2nnc3n2CCCC3)c(C)n1-c1ccccc1`: the IC50 in data set [3] turned out to be 192 nM.

In turn, `Cc1cc(-c2nnc3n2CCCCCC3)c(C)n1-c1ccccc1` yielded an IC50 in data set [3] of 242 nM.

In the case of `Cc1cc(-c2nnc3n2CCCCCCC3)c(C)n1-c1ccccc1`, the IC50 in data set [3] was 383 nM.

With `c1ccc(-n2ccc(-c3nnc4n3CCCCC4)c2)cc1`, the IC50 in data set [3] stood at 607 nM.

`c1ccc(-n2ccc(-c3nnc4n3CCCCC4)n2)cc1` yielded an IC50 in data set [3] of 3830 nM.

The compound `c1ccc(-n2cc(-c3nnc4n3CCCCC4)c3ccccc32)cc1` displayed an IC50 in data set [3] of 681 nM.

In turn, `Cc1cccc(-n2cnc3cc(C(=O)N4CCCC(C)C4)ccc32)c1` (stereo not given) had a concentration for half-maximal inhibition (IC50) in data set [3] of 22 nM.

In the case of `Cc1cccc(-n2cnc3cc(C(=O)N4CC(C)CC(C)C4)ccc32)c1` (stereo not given), 271 nM corresponded to half-maximal inhibition in data set [3] (IC50).

For the compound `Cc1cccc(-n2cnc3cc(C(=O)N4CCCC(C(C)C)C4)ccc32)c1` (stereo not given), the IC50 in data set [3] was determined as 48 nM.

In the case of `Cc1cccc(-n2cnc3cc(C(=O)N4CCCC(C(F)(F)F)C4)ccc32)c1` (stereo not given), in data set [3], the midpoint of inhibition, the IC50, lay at 68 nM.

The compound `Cc1cccc(-n2cnc3cc(C(=O)N4CCC(C(F)(F)F)CC4)ccc32)c1` came in with an IC50 in data set [3] of 1520 nM.

In the case of `Cc1cccc(-n2cnc3cc(C(=O)N4CCCC4)ccc32)c1`, in data set [3], the midpoint of inhibition, the IC50, lay at 383 nM.

`Cc1cccc(-n2cnc3cc(C(=O)N4CCCC(c5ccccc5)C4)ccc32)c1` (stereo not given) displayed an IC50 in data set [3] of 429 nM.

As to `Cc1cccc(-n2cnc3cc(C(=O)NC4CCCC4)ccc32)c1`, half-maximal inhibition in data set [3] (IC50) was put at 961 nM.

Take `CCCCNC(=O)c1ccc2c(c1)ncn2-c1cccc(C)c1`: in data set [3], the IC50 was found to be 1360 nM.

`Cc1cccc(-n2cnc3cc(C(=O)N4CCN(C)CC4)ccc32)c1` gave an IC50 in data set [3] of 2710 nM.

As to `Cc1cccc(-n2cnc3cc(C(=O)N4CCOCC4)ccc32)c1`, in data set [3], the IC50 came to 3040 nM.

In data set [3], `O=C(c1ccc2c(c1)ncn2-c1ccccc1)N1CCCCC1` displayed an IC50 of 22 nM.

Consider `COc1cccc(-n2cnc3cc(C(=O)N4CCCCC4)ccc32)c1`, for which, in data set [3], the IC50 was determined as 19 nM.

`CC(C)c1cccc(-n2cnc3cc(C(=O)N4CCCCC4)ccc32)c1` came in with an IC50 in data set [3] of 68 nM.

Consider `CC(C)(C)c1cccc(-n2cnc3cc(C(=O)N4CCCCC4)ccc32)c1`, for which the IC50 in data set [3] stood at 171 nM.

In data set [3], `Cc1ccc(-n2cnc3cc(C(=O)N4CCCCC4)ccc32)cc1` showed an IC50 of 19 nM.

`O=C(c1ccc2c(c1)ncn2-c1ccc(Cl)cc1)N1CCCCC1` gave an IC50 in data set [3] of 22 nM.

`O=C(c1ccc2c(c1)ncn2-c1ccc(C(F)(F)F)cc1)N1CCCCC1` registered an IC50 in data set [3] of 86 nM.

On to `CC(C)(C)c1ccc(-n2cnc3cc(C(=O)N4CCCCC4)ccc32)cc1`, for which the IC50 in data set [3] came to 54 nM.

`CC(C)(C)n1cnc2cc(C(=O)N3CCCCC3)ccc21` showed an IC50 in data set [3] of 34 nM.

Turning to `CCCCn1cnc2cc(C(=O)N3CCCCC3)ccc21`, the IC50 in data set [3] was 68 nM.

(Values after ChEMBL document CHEMBL3102731, “Structure-activity relationship studies and biological characterization of human NAD(+)-dependent 15-hydroxyprostaglandin dehydrogenase inhibitors” (Bioorg Med Chem Lett, 2014).)
